We go through 13 molecules from ChEMBL document CHEMBL1127946, “The squalestatins: Potent inhibitors of squalene synthase, 3-hydroxymethyl derivatives” (Bioorg Med Chem Lett, 1994).

The assay deals with T1, Squalene synthase (Rattus norvegicus, UniProt Q02769).
T1 sequence (Q02769 whole entry): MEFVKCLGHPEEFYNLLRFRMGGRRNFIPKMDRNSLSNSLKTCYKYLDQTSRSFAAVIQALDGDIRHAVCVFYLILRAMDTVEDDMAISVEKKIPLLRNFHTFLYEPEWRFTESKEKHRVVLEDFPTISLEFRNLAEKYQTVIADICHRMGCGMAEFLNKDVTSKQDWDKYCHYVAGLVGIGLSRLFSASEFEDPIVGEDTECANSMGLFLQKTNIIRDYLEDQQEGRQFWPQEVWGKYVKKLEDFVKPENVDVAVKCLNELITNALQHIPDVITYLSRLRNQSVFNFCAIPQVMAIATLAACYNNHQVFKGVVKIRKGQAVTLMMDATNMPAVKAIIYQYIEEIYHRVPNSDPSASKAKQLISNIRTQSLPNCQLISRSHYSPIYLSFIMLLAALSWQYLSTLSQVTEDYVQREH
The assay is described as follows: In vitro inhibition of rat squalene synthase.
Regarding `C=C(CC[C@]12O[C@H](CO)[C@@](O)(C(=O)O)[C@](C(=O)O)(O1)[C@H](O)[C@H]2O)[C@@H](OC(C)=O)[C@H](C)Cc1ccccc1`, the IC50 (commonly the point on the concentration scale where inhibition reaches its midpoint) came out at 395 nM.
To `C=C(CC[C@]12O[C@H](CO)[C@@](O)(C(=O)O)[C@](C(=O)O)(O1)[C@H](OC(=O)CCC(C)C)[C@H]2O)[C@@H](OC(C)=O)[C@H](C)Cc1ccccc1` belongs 119 nM; to `C=C(CC[C@]12O[C@H](CO)[C@@](O)(C(=O)O)[C@](C(=O)O)(O1)[C@H](OC(=O)CC[C@@H](C)C[C@@H](C)CC)[C@H]2O)[C@@H](O)[C@H](C)Cc1ccccc1`, 22 nM.
Under `C=C(CC[C@]12O[C@H](CO)[C@@](O)(C(=O)O)[C@](C(=O)O)(O1)[C@H](OC(=O)CC[C@@H](C)C[C@@H](C)CC)[C@H]2O)[C@@H](OC(C)=O)[C@H](C)Cc1ccccc1` stands 44 nM.
To `C=C(CC[C@]12OC[C@@](O)(C(=O)O)[C@](C(=O)O)(O1)[C@H](O)[C@H]2O)[C@@H](OC(C)=O)[C@H](C)Cc1ccccc1` belongs 25000 nM.
In the case of `C=C(CC[C@]12OC[C@@](O)(C(=O)O)[C@](C(=O)O)(O1)[C@H](OC(=O)/C=C/[C@@H](C)C[C@@H](C)CC)[C@H]2O)[C@@H](OC(C)=O)[C@H](C)Cc1ccccc1`, the IC50 worked out at 23 nM.
`CC[C@H](C)C[C@H](C)CCC(=O)O[C@@H]1[C@@H](O)[C@@]2(CCC(=O)[C@@H](O)[C@H](C)Cc3ccccc3)O[C@H](CO)[C@@](O)(C(=O)O)[C@]1(C(=O)O)O2` gave an IC50 of 740 nM.
To `C=C(CC[C@]12O[C@H](CO)[C@@](O)(C(=O)O)[C@](C(=O)O)(O1)[C@H](OC(=O)/C=C/[C@@H](C)C[C@@H](C)CC)[C@H]2O)[C@@H](OC(C)=O)[C@H](C)Cc1ccccc1` belongs 15 nM; to `C=C(CC[C@]12O[C@H](CO)[C@@](O)(C(=O)O)[C@](C(=O)O)(O1)[C@H](OC(=O)/C=C/[C@@H](C)C[C@@H](C)CC)[C@H]2O)[C@@H](O)[C@H](C)Cc1ccccc1`, 21 nM; to `C=C(CC[C@]12O[C@H](CO)[C@@](O)(C(=O)O)[C@](C(=O)O)(O1)[C@H](OC(=O)CCCCCC)[C@H]2O)[C@@H](OC(C)=O)[C@H](C)Cc1ccccc1`, 245 nM.
In turn, `C=C(CC[C@]12O[C@H](CO)[C@@](O)(C(=O)O)[C@](C(=O)O)(O1)[C@H](OC(=O)CCCCCCCC)[C@H]2O)[C@@H](OC(C)=O)[C@H](C)Cc1ccccc1` gave an IC50 of 140 nM.
Under `C=C(CC[C@]12O[C@H](CO)[C@@](O)(C(=O)OC)[C@](C(=O)O)(O1)[C@H](OC(=O)/C=C/[C@@H](C)C[C@@H](C)CC)[C@H]2O)[C@@H](OC(C)=O)[C@H](C)Cc1ccccc1` stands 79 nM.
Under `C=C(CC[C@]12O[C@H](CO)[C@@](O)(C(=O)O)[C@](C(=O)O)(O1)[C@H](OC(=O)CCC)[C@H]2O)[C@@H](OC(C)=O)[C@H](C)Cc1ccccc1` stands 800 nM.
